16 compounds from patent US11306075B2, “Benzofuran, benzothiophene, and indole analogs that inhibit the formation of tau oligomers and their method of use” (OLIGOMERIX INC., priority 2016, dated 2022) can be followed below.

Molecules are shown by their SMILES. Counter-ions that a name gives are not always drawn.

Chain of recombinant human tau 4R2N (P10636 other isoform, or with tags, fused parts or gaps): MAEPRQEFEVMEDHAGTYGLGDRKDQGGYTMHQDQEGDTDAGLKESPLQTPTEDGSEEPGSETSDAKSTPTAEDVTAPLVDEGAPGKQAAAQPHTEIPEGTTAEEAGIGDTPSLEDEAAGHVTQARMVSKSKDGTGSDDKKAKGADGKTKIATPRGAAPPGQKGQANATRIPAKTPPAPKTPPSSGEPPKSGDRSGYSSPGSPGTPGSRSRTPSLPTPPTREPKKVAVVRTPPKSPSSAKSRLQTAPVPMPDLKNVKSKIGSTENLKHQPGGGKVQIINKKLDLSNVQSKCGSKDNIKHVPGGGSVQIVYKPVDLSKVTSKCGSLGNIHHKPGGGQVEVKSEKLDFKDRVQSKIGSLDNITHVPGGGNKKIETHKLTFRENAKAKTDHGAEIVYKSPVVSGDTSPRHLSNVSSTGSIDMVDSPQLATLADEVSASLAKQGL

In this assay the target is recombinant human tau 4R2N (Homo sapiens (Human), UniProt P10636). Description: Confirmatory Assay (CONFA), SDS-PAGE quantification of tau monomer and oligomers. Format: biochemical. Conditions: tau target 300 nM, Tris-HCl pH 7.4, room temperature 3 hours, compound 0.098 uM-50 uM. The procedure:
Bacterial recombinant human tau 4R2N (the largest isoform of tau in the central nervous system, 441 amino acids in length, Seq ID 1) constructs with either 6×-His or StrepII N-terminal epitope tags were purified from bacterial lysate using denaturing conditions to prepare tau in its monomeric form.
CONFA Assay: Confirmatory Assay (CONFA) used as a secondary screen for confirming the mechanism of action of compounds identified as hits using the ALA assay. The assay is performed using a similar procedure as ALA except that it utilizes SDS-PAGE for visualization and quantification of tau monomer and aggregated species (dimer, trimer, tetramer, pentamer, etc.). Only a single construct of tau without epitope tags is necessary, but the assay can use the same target prepared for the ALA assay also.
For the CONFA assay, Tau target (300 nM) was prepared in buffer (Tris-HCl pH 7.4) and was incubated at room temperature for 3 hours with vehicle control (DMSO) and a dose range of a compound of the disclosure (0.098 uM-50 uM). Samples were mixed with an equal volume of 2×SDS sample buffer (4% SDS, 20% glycerol, 0.004% bromphenol blue, 125 mM Tris HCl, pH 7.0) to resolve tau monomer and disulfide-finked oligomers on 4-20% gradient polyacrylamide gels (Biorad) along with positive control (non-oligomerized tau target). The gels were stained with Oriole Fluorescent Gel Stain (BioRad) and imaged using the FluorChem R system (Protein Simple). AlphaView software (Protein Simple) was used for quantification of tau monomer and oligomers.
In the case of `COc1ccc(-c2ccc3oc(CCC(C)=O)c(-c4ccc(C)o4)c3c2)cn1` [Ex. 2, 4-(5-(6-Methoxypyridin-3-yl)-3-(5-methylfuran-2-yl)benzofuran-2-yl)butan-2-one], the IC50 was 4.27 µM.
Then `CC(=O)CCc1oc2ccc(-c3cccnc3)cc2c1-c1ccc(C)o1` [Ex. 3, 4-(3-(5-Methylfuran-2-yl)-5-(pyridin-3-yl)benzofuran-2-yl)butan-2-one], with 37.1 µM; and `CC(=O)CCc1oc2ccc(-c3cccc(O)c3)cc2c1-c1ccc(C)o1` [Ex. 4, 4-(5-(3-Hydroxyphenyl)-3-(5-methylfuran-2-yl)benzofuran-2-yl)butan-2-one], with 24.1 µM.
In the case of `COc1cccc(-c2ccc3oc(CCC(C)=O)c(-c4ccc(C)o4)c3c2)c1` [Ex. 5, 4-(5-(3-Methoxyphenyl)-3-(5-methylfuran-2-yl)benzofuran-2-yl)butan-2-one], the IC50 was determined as 0.364 µM.
For `CC(=O)CCc1oc2ccc(-c3cccs3)cc2c1-c1ccc(C)o1` [Ex. 8, 4-(3-(5-Methylfuran-2-yl)-5-(thiophen-2-yl)benzofuran-2-yl)butan-2-one], the IC50 was 5.57 µM.
Then `Cc1ccc(-c2c(CCC(=O)O)oc3ccc(Br)cc23)o1` [Ex. 12, 3-[5-Bromo-3-(5-methyl-furan-2-yl)-benzofuran-2-yl]-propionic Acid], with 22.5 µM; and `Cc1ccc(-c2c(CCC(=O)N3CCC(O)CC3)oc3ccc(Br)cc23)o1` [Ex. 13, 3-[5-Bromo-3-(5-methyl-furan-2-yl)-benzofuran-2-yl]-1-(4-hydroxy-piperidin-1-yl)-propan-1-one], with 3.23 µM; and `Cc1ccc(-c2c(CCC(C)(C)O)oc3ccc(Br)cc23)o1` [Ex. 15, 4-(5-Bromo-3-(5-methylfuran-2-yl)benzofuran-2-yl)-2-methylbutan-2-ol], with 1.32 µM.
Turning to `Cc1ccc(C(C)(O)CCc2oc3ccc(Br)cc3c2-c2ccc(C)o2)cc1` (stereo not shown) [Ex. 16, 4-(5-Bromo-3-(5-methylfuran-2-yl)benzofuran-2-yl)-2-p-tolylbutane-2-ol], the IC50 worked out at 1.31 µM.
Then `CC(=O)CCc1oc2cc(-c3ccncc3)ccc2c1-c1ccc(C)o1` [Ex. 22, 4-(3-(5-Methylfuran-2-yl)-6-(pyridin-4-yl)benzofuran-2-yl)butan-2-one], with 7.57 µM; and `COc1cc(-c2ccc3c(-c4ccc(C)o4)c(CCC(C)=O)oc3c2)ccn1` [Ex. 23, 4-(6-(2-Methoxypyridin-4-yl)-3-(5-methylfuran-2-yl)benzofuran-2-yl)butan-2-one], with 7.18 µM.
`CC(=O)CCc1oc2cc(-c3cccnc3)ccc2c1-c1ccc(C)o1` [Ex. 24, 4-(3-(5-methylfuran-2-yl)-6-(pyridin-3-yl)benzofuran-2-yl)butan-2-one]: the IC50 worked out at 11.8 µM.
Then `COc1ccc(-c2ccc3c(-c4ccc(C)o4)c(CCC(C)=O)oc3c2)cn1` [Ex. 28, 4-(6-(6-Methoxypyridin-3-yl)-3-(5-methylfuran-2-yl)benzofuran-2-yl)butan-2-one], with 17.5 µM; and `CC(=O)CCc1oc2ccc(-c3cncnc3)cc2c1-c1ccc(C)cc1` [Ex. 29, 4-(5-(pyrimidin-5-yl)-3-p-tolylbenzofuran-2-yl)butan-2-one, di HCl Salt], with 7.38 µM.
Then `CC(=O)CCc1oc2cc(-c3cncnc3)ccc2c1-c1ccc(C)o1` [Ex. 30, 4-(3-(5-methylfuran-2-yl)-6-(pyrimidin-5-yl)benzofuran-2-yl)butan-2-one, di HCl Salt], with 20.4 µM.
Then `CC(=O)CCc1oc2cc(-c3cccnc3)ccc2c1-c1ccc(F)cc1` [Ex. 31, 4-(3-(4-fluorophenyl)-6-(pyridin-3-yl)benzofuran-2-yl)butan-2-one HCl Salt], with 9.28 µM.
